Patent US20220296595A1, “CDK INHIBITORS” (QILU REGOR THERAPEUTICS INC., priority 2019, published 2022)
pIC50: −log10 of the molar value.

Key:
[1] = test system: phosphorylation of Retinoblastoma Protein (pRb Ser807/811 or Ser780) in T47D cells; experiment: Inhibition of phosphorylation of retinoblastoma protein (pRb) in T47D cell (ELISA); assay type: cell-based, human; conditions: Homo sapiens, T47D, read-out: Phospho T47D Ser807 IC50, pRb Ser807 phosphorylation, T47D cells
Summary of the method: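 T47D cells in RPMI 1640 + 10% FBS, adhered overnight, then treated 24 h with 3-fold compound titrations (top concentration […]). Lysates assayed by sandwich ELISA for pRb Ser807/811 or Ser780 with HRP/TMB detection. IC50 from 4-parameter sigmoidal fit.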

CDK4/CyclinD1 = biological target: T1, CDK4/CyclinD1 (Homo sapiens, UniProt P11802); experiment: Assay for inhibition of CDK4/CyclinD1 (Caliper microfluidic kinase assay); assay type: biochemical; conditions: CDK4/CyclinD1, 200 μM ATP
T1 construct: purchased Thermofisher PR8064A
T1 sequence (P11802 whole entry): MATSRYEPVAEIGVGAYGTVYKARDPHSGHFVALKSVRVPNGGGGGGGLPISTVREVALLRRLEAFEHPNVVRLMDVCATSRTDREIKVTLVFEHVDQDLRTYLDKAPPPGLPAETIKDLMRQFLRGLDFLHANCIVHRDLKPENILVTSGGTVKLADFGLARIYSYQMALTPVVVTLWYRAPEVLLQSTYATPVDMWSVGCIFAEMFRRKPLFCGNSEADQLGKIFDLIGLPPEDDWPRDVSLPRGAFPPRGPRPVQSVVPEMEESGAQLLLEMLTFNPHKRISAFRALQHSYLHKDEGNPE
T1 sequence (P24385 whole entry partner): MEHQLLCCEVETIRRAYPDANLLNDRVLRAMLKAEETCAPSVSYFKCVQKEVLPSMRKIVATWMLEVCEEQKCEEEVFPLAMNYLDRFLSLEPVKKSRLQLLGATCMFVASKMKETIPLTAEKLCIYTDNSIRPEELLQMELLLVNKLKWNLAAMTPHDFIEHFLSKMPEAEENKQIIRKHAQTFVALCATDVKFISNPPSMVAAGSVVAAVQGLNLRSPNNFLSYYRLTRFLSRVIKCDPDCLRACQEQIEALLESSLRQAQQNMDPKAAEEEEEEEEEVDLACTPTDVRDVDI
Summary of the method: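 IC50 was obtained by 4-parameter sigmoidal fitting after 1 nM CDK4/CyclinD1, 200 μM ATP and 1 μM FL-34 substrate reacted for 3 h at room temperature (pH 7.5 HEPES, 10 mM MgCl2). After EDTA quench, substrate and product were separated and detected on a Caliper microfluidic chip.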

CDK2/CyclinE1 = biological target: T2, CDK2/CyclinE1 (Homo sapiens, UniProt P24941); experiment: Assay for inhibition of CDK2/CyclinE1 (Caliper microfluidic kinase assay); assay type: biochemical; conditions: CDK2/CyclinE1, 100 μM ATP; read-out: CDK2 IC50
T2 construct: purchased SignalChem C29-18G
Summary of the method: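 IC50 came from 4-parameter fits of substrate-to-product conversion, separated on a Caliper chip after an EDTA stop. Reactions ran 3 hours at room temperature with 100 μM ATP, 5 μM fluorescent FL-18 peptide and 5 nM enzyme in 100 mM HEPES pH 7.5, 10 mM MgCl2.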

T47D breast cancer cells = experiment: Anti-proliferation assay in T47D cell (Cyquant, day 6); assay type: cell-based, human; conditions: Homo sapiens, T47D, anti-proliferation, T47D cells; read-out: T47D IC50
Summary of the method: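 A ten-point, 3-fold compound series (10 μM down to 0.51 nM) was applied to overnight-settled cells in 10% FBS RPMI 1640, and DNA content was read by CyQuant fluorescence 6 days later. An untreated plate read before dosing served as baseline for subtraction before IC50 fitting.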

CDK6/CyclinD3 = biological target: T3, CDK6/CyclinD3 (Homo sapiens, UniProt Q00534); experiment: Assay for inhibition of CDK6/CyclinD3 (Caliper microfluidic kinase assay); assay type: biochemical; conditions: CDK6/CyclinD3, 300 μM ATP
T3 construct: purchased Carna 04-107
T3 sequence (Q00534 whole entry): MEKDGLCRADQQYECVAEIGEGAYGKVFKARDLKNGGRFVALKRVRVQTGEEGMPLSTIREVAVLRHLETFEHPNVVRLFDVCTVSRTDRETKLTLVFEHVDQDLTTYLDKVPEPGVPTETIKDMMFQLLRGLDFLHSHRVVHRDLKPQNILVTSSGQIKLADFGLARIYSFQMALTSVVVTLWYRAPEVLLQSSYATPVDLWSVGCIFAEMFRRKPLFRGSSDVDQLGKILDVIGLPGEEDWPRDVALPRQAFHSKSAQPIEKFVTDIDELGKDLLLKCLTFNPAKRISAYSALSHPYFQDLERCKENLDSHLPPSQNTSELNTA
T3 sequence (P30281 whole entry partner): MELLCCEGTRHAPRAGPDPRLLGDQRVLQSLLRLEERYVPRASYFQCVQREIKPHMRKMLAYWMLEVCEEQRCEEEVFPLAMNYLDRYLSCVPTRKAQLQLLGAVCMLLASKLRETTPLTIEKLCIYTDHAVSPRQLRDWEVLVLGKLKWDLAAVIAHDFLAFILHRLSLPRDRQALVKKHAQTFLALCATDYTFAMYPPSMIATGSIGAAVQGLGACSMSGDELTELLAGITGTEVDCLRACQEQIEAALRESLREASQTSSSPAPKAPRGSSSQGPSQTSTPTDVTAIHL
Summary of the method: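 IC50s came from four-parameter dose-response fits of microfluidic substrate/product separation data. Reactions held 2 nM CDK6/CyclinD3, 300 μM ATP and 1 μM 5-FAM peptide FL-34 in pH 7.5 HEPES/MgCl2 buffer, ran 3 hours at room temperature, then were quenched with EDTA.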

SMILES | pIC50 [1] | pIC50 (CDK4/CyclinD1) | pIC50 (CDK2/CyclinE1) | pIC50 (T47D breast cancer cells) | pIC50 (CDK6/CyclinD3)
CCN(CC)C1CCN(c2ccc(Nc3nccc(-c4ccn5ncc(C(C)C)c5c4)n3)nc2)C(=O)C1 (centres unmarked) [compound 176] | > 7.00 | > 8.00 | 7.00 to 8.00 | > 7.00 | 7.00 to 8.00
CC(C)c1cnn2ccc(-c3ccnc(Nc4ccc(N5CCC=CC5=O)cn4)n3)cc12 [compound 184] | > 7.00 | > 8.00 | 7.00 to 8.00 | > 7.00 | 7.00 to 8.00
CC(C)c1cnn2ccc(-c3ccnc(Nc4ccc(C(=O)N5CCC(NC6CC6)C5)cc4)n3)cc12 (centres unmarked) [compound 191] | > 7.00 | > 8.00 | > 8.00 | > 7.00 | 7.00 to 8.00
Cc1nn2ccc(-c3ccnc(Nc4ccc(N5CCNCC5=O)cn4)n3)cc2c1C(C)C [compound 192] | > 7.00 | > 8.00 | 7.00 to 8.00 | > 7.00 | 7.00 to 8.00
CC1CC(=O)N(c2ccc(Nc3ncc(F)c(-c4ccn5ncc(C(C)C)c5c4)n3)nc2)CCN1 (centres unmarked) [compound 193] | > 7.00 | > 8.00 | 7.00 to 8.00 | > 7.00 | 7.00 to 8.00
CC1CN(c2ccc(Nc3ncc(F)c(-c4ccn5ncc(C(C)C)c5c4)n3)nc2)C(=O)CCN1 (centres unmarked) [compound 194] | > 7.00 | > 8.00 | 7.00 to 8.00 | 6.30 to 7.00 | 7.00 to 8.00
O=C1CCNCCN1c1ccc(Nc2ncc(F)c(-c3ccn4ncc(C5CC5)c4c3)n2)nc1 [compound 195] | > 7.00 | > 8.00 | 6.00 to 7.00 | > 7.00 | 7.00 to 8.00
CC(C)c1cnn2ccc(-c3ccnc(Nc4ccc(N5CCC(C)(N)CC5=O)cn4)n3)cc12 (centres unmarked) [compound 196] | > 7.00 | > 8.00 | > 8.00 | > 7.00 | 7.00 to 8.00
CC(C)(C)c1cnn2ccc(-c3ccnc(Nc4ccc(N5CCNCCC5=O)cn4)n3)cc12 [compound 197] | > 7.00 | > 8.00 | 7.00 to 8.00 | > 7.00 | 7.00 to 8.00
CC(C)c1cnn2ccc(-c3nc(Nc4ccc(N5C(=O)CC6CC5CN6)cn4)ncc3F)cc12 (centres unmarked) [compound 198] | > 7.00 | > 8.00 | 7.00 to 8.00 | > 7.00 | 7.00 to 8.00
CC(C)c1cnn2ccc(-c3nc(Nc4ccc(N5CC6CCC(CC5=O)N6)cn4)ncc3F)cc12 (centres unmarked) [compound 199] | > 7.00 | > 8.00 | 7.00 to 8.00 | > 7.00 | > 8.00
CC(C)c1cnn2ccc(-c3ccnc(Nc4ccc(N5CCC(N6CCNCC6)CC5=O)cn4)n3)cc12 (centres unmarked) [compound 200] | > 7.00 | > 8.00 | 7.00 to 8.00 | > 7.00 | 7.00 to 8.00
CC(C)c1cnn2ccc(-c3ccnc(Nc4ccc(N5CCC(C)(N)CC5=O)cc4)n3)cc12 (centres unmarked) [compound 202] | > 7.00 | > 8.00 | > 8.00 | > 7.00 | > 8.00
CC(C)c1cnn2ccc(-c3ccnc(Nc4ccc(N5CCC(N)CC5=O)cn4)n3)cc12 (centres unmarked) [compound 203] | > 7.00 | > 8.00 | > 8.00 | > 7.00 | 7.00 to 8.00
CC(C)c1cnn2ccc(-c3ccnc(Nc4ccc(N5CCCC(N)C5=O)cn4)n3)cc12 (centres unmarked) [compound 207] | > 7.00 | > 8.00 | 7.00 to 8.00 | > 7.00 | > 8.00
CC(C)c1cnn2ccc(-c3ccnc(Nc4ccc(N5CCCC(N)C5=O)cc4)n3)cc12 (centres unmarked) [compound 214] | > 7.00 | > 8.00 | > 8.00 | > 7.00 | > 8.00

SMILES | pIC50 [1] | pIC50 (CDK4/CyclinD1) | pIC50 (CDK2/CyclinE1) | pIC50 (T47D breast cancer cells) | pIC50 (CDK6/CyclinD3)
CC(C)c1cnn2ccc(-c3ccnc(Nc4ccc(N5CCN(C6COC6)CC5=O)cn4)n3)cc12 [compound 234] | > 7.00 | > 8.00 | 7.00 to 8.00 | > 7.00 | 7.00 to 8.00
CCN1CCN(c2ccc(Nc3nccc(-c4ccn5ncc(C(C)C)c5c4)n3)nc2)C(=O)C1 [compound 235] | > 7.00 | > 8.00 | 7.00 to 8.00 | > 7.00 | 7.00 to 8.00
CC(C)c1cnn2ccc(-c3ccnc(Nc4ccc(N5CCN(S(C)(=O)=O)CCC5=O)cn4)n3)cc12 [compound 236] | > 7.00 | > 8.00 | 7.00 to 8.00 | > 7.00 | > 8.00
CC(C)c1cnn2ccc(-c3ccnc(Nc4ccc(N5CCN(CCO)CC5=O)cn4)n3)cc12 [compound 237] | > 7.00 | > 8.00 | 7.00 to 8.00 | > 7.00 | 7.00 to 8.00
CC(C)n1cnc2c1CN(c1ccnc(Nc3ccc(N4CCCNC4=O)cn3)n1)CC2 [compound 242] | > 7.00 | > 8.00 | 6.00 to 7.00 | 6.00 to 6.30 | 7.00 to 8.00
CC(C)n1cnc2c1CN(c1ccnc(Nc3ccc(N4CCC(C)(N)CC4=O)cn3)n1)CC2 (centres unmarked) [compound 244] | 6.00 to 6.30 | > 8.00 | 7.00 to 8.00 | 6.00 to 6.30 | 6.00 to 7.00
CC(C)n1cnc2c1CN(c1ccnc(Nc3ccc(N4CCC(N(C)C)CC4=O)cn3)n1)CC2 (centres unmarked) [compound 245] | 6.30 to 7.00 | > 8.00 | 7.00 to 8.00 | 6.00 to 6.30 | 6.00 to 7.00
CC1(N)CCN(c2ccc(Nc3nccc(-c4cc(F)c5c(c4)C(C)(C)CO5)n3)nc2)C(=O)C1 (centres unmarked) [compound 258] | > 7.00 | > 8.00 | 7.00 to 8.00 | > 7.00 | 7.00 to 8.00
CN(C)C1CCN(c2ccc(Nc3nccc(-c4cc(F)c5c(c4)C(C)(C)CO5)n3)nc2)C(=O)C1 (centres unmarked) [compound 259] | > 7.00 | > 8.00 | 7.00 to 8.00 | > 7.00 | 7.00 to 8.00
CC(C)n1cnc2c(F)nc(-c3ccnc(Nc4ccc(N5CCC(N(C)C)CC5=O)cn4)n3)cc21 (centres unmarked) [compound 270] | > 7.00 | > 8.00 | 7.00 to 8.00 | > 7.00 | > 8.00
CC(C)n1cnc2c(F)nc(-c3ccnc(Nc4ccc(N5CC6CC5CN6)cn4)n3)cc21 (centres unmarked) [compound 272] | > 7.00 | > 8.00 | 6.00 to 7.00 | > 7.00 | 7.00 to 8.00
CC(C)n1cnc2c(F)nc(-c3ccnc(Nc4ccc(N5CCNCC5=O)cn4)n3)cc21 [compound 273] | > 7.00 | > 8.00 | 7.00 to 8.00 | > 7.00 | 7.00 to 8.00
Cc1nc2c(F)nc(-c3ccnc(Nc4ccc(N5CCNCC5=O)cn4)n3)cc2n1C(C)C [compound 276] | > 7.00 | > 8.00 | 7.00 to 8.00 | > 7.00 | > 8.00
CC(C)n1cnc2c(F)nc(-c3nc(Nc4ccc(N5CCC(N(C)C)CC5=O)cn4)ncc3Cl)cc21 (centres unmarked) [compound 278] | > 7.00 | > 8.00 | 6.00 to 7.00 | > 7.00 | 7.00 to 8.00
Cc1cnc(Nc2ccc(N3CCC(N(C)C)CC3=O)cn2)nc1-c1cc2c(ncn2C(C)C)c(F)n1 (centres unmarked) [compound 279] | > 7.00 | > 8.00 | 6.00 to 7.00 | > 7.00 | 7.00 to 8.00
